Earlier results as cited in patent US7148022B2, “Assay for anti-viral agent” (The University Court of the University of St. Andrews, priority 2000, dated 2006).

Tested on: picornavirus
Conditions: background statement, refs 9 and 10

## C[C@H]1CCC/C=C/[C@@H]2C[C@H](O)C[C@H]2[C@H](O)/C=C/C(=O)O1 [Brefeldin-A]
  inhibition of picornavirus replication: one of the most potent known inhibitors
